Data published in US11345762B2, “Method for preparing liquid medium composition, and preparation device and kit therefor” (NISSAN CHEMICAL INDUSTRIES, LTD., priority 2015, dated 2022).

B1: human HB-EGF: growth factor, manufactured by PEPROTECH (protein, UniProt Q99075 63-148, looked up)
Heparin-binding EGF-like …: DLQEADLDLLRVTLSSKPQALATPNKEEHGKRKKKGKGLGKKRDPCLRKYKDFCIHGECKYVKELRAPSCICHPGYHGERCHGLSL
B2: human PDGF-BB: growth factor, manufactured by PEPROTECH (protein, UniProt P01127 82-190, looked up)
Platelet-derived growth …: SLGSLTIAEPAMIAECKTRTEVFEISRRLIDRTNANFLVWPPCVEVQRCSGCCNNRNVQCRPTQVQLRPVQVRKIEIVRKKPIFKKATVTLEDHLACKCETVAAARPVT
modifications: homodimer
notes: growth factor, manufactured by PEPROTECH

Tested on: Human pancreatic cancer cell line Panc02,03
Experiment: Proliferation action on Panc02,03 cell stimulated by each growth factor (ATP, CellTiter-Glo)
Type: cell-based
[1] = Panc02,03, 10 ng/mL, medium composition of Example 13, on day 6 (head)
[2] = Panc02,03, 10 ng/mL, monolayer culture group, culture conditions on day 6 (head)
[3] = Panc02,03, 10 ng/mL, negative control group (medium free of deacylated gellan gum, low adhesion plate), on day 6 (head)
[4] = Panc02,03, 100 ng/mL, medium composition of Example 13, on day 6 (head)
[5] = Panc02,03, 100 ng/mL, monolayer culture group, culture conditions on day 6 (head)
[6] = Panc02,03, 100 ng/mL, negative control group (medium free of deacylated gellan gum, low adhesion plate), on day 6 (head)
[7] = Panc02,03, 30 ng/mL, medium composition of Example 13, on day 6 (head)
[8] = Panc02,03, 30 ng/mL, monolayer culture group, culture conditions on day 6 (head)
[9] = Panc02,03, 30 ng/mL, negative control group (medium free of deacylated gellan gum, low adhesion plate), on day 6 (head)

Molecule	% control of RLU value (ATP measurement, luminescence intensity) [1] [% Control]	% control of RLU value (ATP measurement, luminescence intensity) [2] [% Control]	% control of RLU value (ATP measurement, luminescence intensity) [3] [% Control]	% control of RLU value (ATP measurement, luminescence intensity) [4] [% Control]	% control of RLU value (ATP measurement, luminescence intensity) [5] [% Control]	% control of RLU value (ATP measurement, luminescence intensity) [6] [% Control]	% control of RLU value (ATP measurement, luminescence intensity) (Panc02,03, 3 ng/mL, medium composition of Example 13, on day 6 (head)) [% Control]	% control of RLU value (ATP measurement, luminescence intensity) (Panc02,03, 3 ng/mL, monolayer culture group, culture conditions on day 6 (head)) [% Control]	% control of RLU value (ATP measurement, luminescence intensity) (Panc02,03, 3 ng/mL, negative control group (medium free of deacylated gellan gum, low adhesion plate), on day 6 (head)) [% Control]	% control of RLU value (ATP measurement, luminescence intensity) [7] [% Control]	% control of RLU value (ATP measurement, luminescence intensity) [8] [% Control]	% control of RLU value (ATP measurement, luminescence intensity) [9] [% Control]	efficacy in Panc02,03 cell proliferation test using the medium composition by the production method of the present invention (in words) (compared to a monolayer culture method and negative control group)
human IGF-1: growth factor, manufactured by PEPROTECH	100	101	119	110	98	121							
human TGF-β1: growth factor, manufactured by PEPROTECH							102	95	114	106	99	122	
B1				202	98	134				118	99	132	strongly shown
B2	101	98	128										
